Experimental data taken from PubChem BioAssay (NCI).
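Cells were grown in 96-well plates and exposed to each compound for 48 hours at five concentrations; endpoints were interpolated linearly between bracketing concentrations, or set to the highest concentration if not reached. GI50: concentration for 50% inhibition of growth. TGI marks complete inhibition of growth.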 *1 amine or outer side, *2 acyl side, *3 side chain or, on linkers, in order; H or OH if unused. Where a SMILES comes first, the peptide text is derived from it. Bridges are numbered along the chain shown (N, C = ends). [ ]: non-standard residue; d: D form. The star is where a group is joined. X38 = CC[C@H](C)[C@@H](N[*:1])[C@@H](O)CC(=O)[*:2]; NMeY = CN[C@@H](Cc1ccc(O)cc1)C(=O)O; dNMeL = CN[C@H](CC(C)C)C(=O)O; Hiv = CC(C)[C@H](O)C(=O)O; Pyruvoyl = CC(=O)C(=O)*

Tests used:
Assay in all cases: NCI tumour cell line growth inhibition, 48 h
SR leukemia = system: SR leukemia
NCI-H522 lung = system: NCI-H522 lung
SF-268 CNS = system: SF-268 CNS
EKVX NSCLC = system: EKVX NSCLC
SNB-75 CNS = system: SNB-75 CNS
LOX IMVI melanoma = system: LOX IMVI melanoma
SF-295 CNS = system: SF-295 CNS
SN12C renal = system: SN12C renal
MDA-N = system: MDA-N
M19-MEL melanoma = system: M19-MEL melanoma
KM20L2 colon = system: KM20L2 colon

Compound	TGI (SR leukemia) [µM]	TGI (NCI-H522 lung) [µM]	TGI (SF-268 CNS) [µM]	TGI (EKVX NSCLC) [µM]	TGI (SNB-75 CNS) [µM]	TGI (LOX IMVI melanoma) [µM]	TGI (SF-295 CNS) [µM]	TGI (SN12C renal) [µM]	TGI (MDA-N) [µM]	TGI (M19-MEL melanoma) [µM]	TGI (KM20L2 colon) [µM]	GI50 (NCI-H522 lung) [µM]	GI50 (SF-268 CNS) [µM]	GI50 (EKVX NSCLC) [µM]	GI50 (SNB-75 CNS) [µM]	GI50 (SF-295 CNS) [µM]	GI50 (SN12C renal) [µM]	GI50 (MDA-N) [µM]
CN(C)c1ccc(-c2c(C#N)c(N)[nH]c(=S)c2C#N)cc1	> 100	> 100	> 100	> 100	> 100	> 100	> 100	> 100	> 100	–	–	–	–	–	–	–	–	–
O=C1CC(=O)NC(=NN2C(=O)CSC2c2ccc(Cl)c(Cl)c2)N1 (stereo not drawn)	> 100	> 100	> 100	–	> 100	–	> 100	> 100	> 100	–	–	–	–	–	–	–	–	–
CCOC(=O)CCC(NC(=O)Cc1ccc(Nc2nc3ccccc3nc2-c2ccccc2)cc1)C(=O)OCC (stereo not drawn)	> 100	> 100	23.7	> 100	38.3	> 100	48.4	> 100	> 100	–	–	–	–	–	–	–	–	–
Fc1c(F)c(C(F)(F)F)c(F)c(F)c1N/N=C\c1c[nH]c2ccccc12	9.19	5.57	19.4	11.9	6.23	12.1	6.82	11.8	3.61	–	–	–	–	–	–	–	–	–
Cc1nn2c(=O)c([N+](=O)[O-])c(/C=C/c3ccccc3)nc2s1	6.52	12	> 100	> 29.8	20.3	3.98	> 100	> 100	6.72	–	–	–	–	–	–	–	–	–
O=C1CSC2(CC(/C=C/c3ccccc3O)=NN2c2cccc(S(=O)(=O)O)c2)N1c1nc2ccccc2s1 (stereo not drawn)	49.5	30.4	> 100	> 100	> 100	39.3	–	78.7	> 100	–	–	–	–	–	–	–	–	–
CC1=NC(=O)C(C)(c2ccccc2)N1CCc1ccccc1 (stereo not drawn)	> 100	> 100	> 100	> 100	> 100	> 100	> 100	> 100	> 100	–	–	–	–	–	–	–	–	–
CCOC(=O)c1cc(Sc2ccc(N)c(C(=O)OCC)c2)ccc1N	> 100	> 100	> 100	> 100	> 100	–	> 100	40.3	> 100	–	–	–	–	–	–	–	–	–
Fc1cc(C2=C[C@H](c3ccc(Cl)cc3)NC(=S)N2)c(Cl)cc1Cl	> 100	> 100	> 100	> 100	> 100	> 100	> 100	79.6	> 100	–	–	–	–	–	–	–	–	–
CN(C)c1ccc(/C=C/C=C\C2=CC(=C\C=C/C=C3C=CC(=[N+](C)C)C=C3)/Sc3ccccc32)cc1	–	–	> 100	> 100	> 100	64.1	> 100	> 100	–	35	> 100	–	–	–	–	–	–	–
COc1cc(/C=C/C(=O)c2sc(-n3nc(-c4ccccc4)cc3-c3ccccc3)nc2C)ccc1O	–	> 100	> 100	> 100	> 100	> 100	> 100	> 100	–	> 100	> 100	–	–	–	–	–	–	–
NCCCCNCCCN1CC1	52.9	19.9	> 100	18.3	1.92	3.46	> 100	–	> 100	–	–	–	–	–	–	–	–	–
CC(=O)/C(=C\c1ccco1)C(=O)Nc1ccccc1	> 100	> 100	> 100	> 100	–	> 100	> 100	> 100	–	> 100	–	–	–	–	–	–	–	–
Nc1ccn(C2CC(O)C(COP(O)(=S)OC3CC(n4ccc(N)nc4=O)OC3CO)O2)c(=O)n1 (stereo not drawn)	> 100	> 100	> 100	> 100	> 100	> 100	> 100	> 100	> 100	–	–	–	–	–	–	–	–	–
CC1=C(C(=O)Nc2cccc3c2C(=O)NC3=O)CC(C(=O)Nc2cccc3c2C(=O)NC3=O)=C(C)N1	> 100	> 100	> 100	> 100	> 100	> 100	> 100	> 100	> 100	–	–	–	–	–	–	–	–	–
Cc1c2cnccc2c(C)c2c1[nH]c1ccc(O)cc12	2.88	> 10	> 10	> 10	8.09	1.71	5.57	7.35	> 10	–	–	–	–	–	–	–	–	–
COc1cc(S(=O)(=O)Nc2ccc(-c3csc(N4C(=O)CSC4c4cccs4)n3)cc2)ccc1Cl (stereo not drawn)	> 100	33.9	40.5	> 100	40.3	36.6	> 100	73.7	98.2	–	–	–	–	–	–	–	–	–
c1csc(-c2cscc2-c2ccsc2)c1	> 95.9	> 100	> 100	> 100	> 100	> 100	> 100	> 100	> 63.3	–	–	–	–	–	–	–	–	–
O=P(O)(OCC(O)O)OCC(O)O	–	> 100	> 100	> 100	> 100	> 100	> 100	–	–	> 100	> 100	–	–	–	–	–	–	–
COc1ccc(/C=C2\OC(=O)C(Cl)=C2c2ccc(OC)cc2)cc1	> 100	> 100	> 100	> 100	> 100	> 100	> 100	> 100	> 100	–	–	–	–	–	–	–	–	–
O=C1NC(N2CCOCC2)=N/C1=C\c1cccs1	> 100	> 100	> 100	> 100	> 100	> 100	> 100	> 100	> 100	–	–	–	–	–	–	–	–	–
C[C@H]1[C@H](C)N(Cc2ccccc2)P(=O)(C(O)/C=C/c2ccccc2)N1Cc1ccccc1 (stereo partly drawn)	20.5	> 25	> 25	24.9	17.9	14.5	20.1	8.75	13.6	–	–	–	–	–	–	–	–	–
CCOC(=O)c1nc2ccc(C(F)(F)F)cc2nc1NCc1ccc(Cl)c(Cl)c1	> 100	33.5	> 100	> 100	51.3	> 100	69.9	–	> 100	–	–	–	–	–	–	–	–	–

Compound	TGI (SR leukemia) [µM]	TGI (NCI-H522 lung) [µM]	TGI (SF-268 CNS) [µM]	TGI (EKVX NSCLC) [µM]	TGI (SNB-75 CNS) [µM]	TGI (LOX IMVI melanoma) [µM]	TGI (SF-295 CNS) [µM]	TGI (SN12C renal) [µM]	TGI (MDA-N) [µM]	TGI (M19-MEL melanoma) [µM]	TGI (KM20L2 colon) [µM]	GI50 (NCI-H522 lung) [µM]	GI50 (SF-268 CNS) [µM]	GI50 (EKVX NSCLC) [µM]	GI50 (SNB-75 CNS) [µM]	GI50 (SF-295 CNS) [µM]	GI50 (SN12C renal) [µM]	GI50 (MDA-N) [µM]
NC(=O)OCC(COc1ccc(Cl)cc1)OC(=O)c1ccccc1Cl (stereo not drawn)	51.7	31.9	79.1	70	> 100	27.9	62.2	34	–	–	34.9	–	–	–	–	–	–	–
NCC1(N2CCOCC2)C2CCCC21CO (stereo not drawn)	> 100	> 100	> 100	–	> 100	–	> 100	> 100	–	> 100	–	–	–	–	–	–	–	–
COc1cc2cc(C(=O)N3CC(CCl)c4c3cc(NC(=O)C(C)(C)c3ccccc3[N+](=O)[O-])c3ccccc43)[nH]c2c(OC)c1OC (stereo not drawn)	> 600	–	–	–	–	6.86	–	–	–	–	–	38.4	19.5	127	61.7	19.2	146	76.7
COc1ccc(Br)c2c1CC(C(=O)O)CC2 (stereo not drawn)	> 100	> 100	> 100	> 100	> 100	> 100	> 100	> 100	> 100	–	> 100	–	–	–	–	–	–	–
O=C1c2cc3c(cc2CC12Cc1cc4c(cc1C2=O)CCCC4)CCCC3	> 100	> 100	> 100	> 100	53.4	> 100	69	> 100	> 100	–	–	–	–	–	–	–	–	–
Clc1cccc(Cl)c1C=NC12CC3CC(CC(C3)C1)C2	> 10	> 10	> 10	> 10	> 10	> 10	> 10	> 10	> 10	–	–	–	–	–	–	–	–	–
COc1ccc(C2c3cc4c(cc3C(O)C3CCC(=O)N23)OCO4)cc1 (stereo not drawn)	> 100	> 100	> 100	> 100	> 100	> 100	> 100	> 100	> 100	–	–	–	–	–	–	–	–	–
CCCCc1ccc(Nc2nc(Cl)c3c(ncn3COCCOC(C)=O)n2)cc1	47.3	33.4	38.5	37.1	16.5	34	28.2	34.8	34.4	–	–	–	–	–	–	–	–	–
CC[C@H](C)[C@H]1NC(=O)[C@@H](NC(=O)[C@@H](CC(C)C)N(C)C(=O)[C@@H]2CCCN2C(=O)C(C)=O)[C@@H](C)OC(=O)[C@H](Cc2ccc(OC)cc2)N(C)C(=O)[C@@H]2CCCN2C(=O)[C@H](CC(C)C)NC(=O)[C@H](C(C)C)OC(=O)C[C@@H]1O (Pyruvoyl-P[dNMeL]T[X38][Hiv]LP[NMeY](Me); ester 3-C)	0.607	0.179	0.0983	0.0103	0.0101	0.0481	0.525	0.0476	0.14	–	–	–	–	–	–	–	–	–
Cc1nc2sc(CCl)nn2c(=O)c1Cl	26.2	12.4	33.4	27.7	24.7	7.34	31.1	26.6	24.8	–	–	–	–	–	–	–	–	–
C=C1C(=O)C([Si](C)(C)C)=C2C=C(C)C3(CC3)C12C (stereo not drawn)	11.7	66.2	> 100	42.2	–	89	> 100	> 100	> 100	–	–	–	–	–	–	–	–	–
O=c1c2cc(S(=O)(=O)Nc3ccccc3Cl)ccc2ncn1NS(=O)(=O)c1ccc(Br)cc1	> 37.5	> 37.5	> 37.5	> 37.5	> 37.5	> 37.5	> 37.5	> 37.5	> 37.5	–	–	–	–	–	–	–	–	–
COc1cc(NC(C)=O)c2[nH]c3c(C)cc(NC(C)=O)c(C)c3c2c1	–	> 100	> 100	> 100	> 100	–	> 100	> 100	–	> 100	> 100	–	–	–	–	–	–	–
CC(C)OP(=O)(OC(C)C)C(C(C)C)N(C)/C(N)=N\C1=NC(C(F)(F)F)(C(F)(F)F)N=C(C(C(F)(F)F)C(F)(F)F)O1 (stereo not drawn)	14.2	3.09	12	16.1	11.9	3.77	18	10.5	4.91	–	–	–	–	–	–	–	–	–
Oc1ccccc1/C=N/Nc1nnc2c3ccccc3c3ccccc3c2n1	> 100	54.1	> 100	> 100	84.4	> 100	> 100	> 100	> 100	–	–	–	–	–	–	–	–	–
NC(=O)C(Nc1c(Cl)cccc1Cl)c1cc2cc(Br)ccc2nc1Cl (stereo not drawn)	56.5	> 100	> 100	> 100	> 100	> 100	> 100	> 100	> 100	–	–	–	–	–	–	–	–	–
C[C@@]12C=CC3C/C(=N\C(N)=S)C=C(CCCC4OCCO4)[C@]3(CC1)C2 (stereo partly drawn)	60.7	22.9	87.8	40.6	66.3	31.1	88	30.8	33.9	–	–	–	–	–	–	–	–	–
COc1ccccc1C1CC(=O)CC(c2ccccc2OC)C12C(=O)NC(=S)NC2=O (stereo not drawn)	> 100	> 100	> 100	> 100	> 100	> 100	> 100	> 100	52.5	–	–	–	–	–	–	–	–	–
CCCCCC(=O)Nc1n[nH]nc1C(N)=O	> 100	> 100	> 100	> 100	> 100	> 100	> 100	> 100	> 100	–	–	–	–	–	–	–	–	–
C=C(c1ccccc1)C1ON(C)CCc2cc(OC)c(OC)cc21 (stereo not drawn)	> 100	> 100	> 100	> 100	> 100	> 100	> 100	> 100	> 100	–	–	–	–	–	–	–	–	–
COc1cc(OCc2ccc3nc(-c4ccccc4)c(N)nc3c2)cc(OC)c1OC	43.8	37.7	> 100	50.2	59.7	29.7	68.7	> 100	28.8	–	–	–	–	–	–	–	–	–
CC1(C)C(=O)N(O)C(C)(C)N1O	> 10	> 10	> 10	> 10	> 10	> 10	> 10	> 10	> 10	–	–	–	–	–	–	–	–	–
